The numbers were not newly measured in article PMC3466449 (Scientific Reports, 2012), which cites them from elsewhere.

Non-standard residues stand in square brackets, D forms with d. No end group written: not given here. pGlu = O=C1CC[C@@H](C(=O)O)N1

For this data set, the system named is C-domain of sACE. As to conditions: C-domain over N-domain of sACE.

As to `O=C(N[C@@H](Cc1ccccc1)P(=O)(O)C1CCCC1C(=O)N[C@@H](Cc1c[nH]c2ccccc12)C(=O)O)OCc1ccccc1` (some centres unmarked) [RXPA380], the C-domain selectivity result is “approximately 3000 fold”.
Consider “[pGlu]GLPPRPKIPP [BPPb, bradykinin potentiating peptide b]”, for which the C-domain selectivity entry is recorded as “about 260 fold”.
